The text below walks through data of patent US20250032464A1, “SOLID DISPERSION, PREPARATION METHOD THEREFOR, AND SOLID FORMULATION CONTAINING SAME” (HAIHE BIOPHARMA CO., LTD., priority 2021, published 2025).

The test system of one data set is P-gp. The experiment in a line: in vitro. The following applies: human, Caco-2.
The next data set is described as follows: in vitro. To be noted: human, Caco-2.
The test system of the next data set is Caco-2 cell model. To be noted: for The ratio of apparent permeability: human.
For data set [1] the following is noted: for Equilibrium solubility, 24 h: 37° C.

The structures appear in SMILES notation. Read-outs that look alike come from different tables or passages of the source.

The efflux ratio is the permeability from basolateral to apical divided by that in the opposite direction, in the common usage. One may read the Papp A→B as how fast a substance crosses the layer from the apical side. High values mean ready permeation, low ones poor permeation. Broadly, the Papp B→A is how fast a substance crosses the layer from the basolateral side. For the compound `CC(C)NCC(O)COc1cccc2ccccc12` (centres unmarked) [Propranolol, propranolol], the efflux ratio in the data set with P-gp came out at 1.24. In the data set “in vitro”, this compound returned an apparent permeability from apical to basolateral (Papp A→B) of 13.7 ± 0.67 ×10⁻⁶ cm/s and a basolateral-to-apical permeability (Papp B→A) of 17 ± 0.32 ×10⁻⁶ cm/s.

In the case of `C[C@H]1O[C@@H](O[C@H]2[C@@H](O)C[C@H](O[C@H]3[C@@H](O)C[C@H](O[C@H]4CC[C@@]5(C)[C@H](CC[C@@H]6[C@@H]5C[C@@H](O)[C@]5(C)[C@@H](C7=CC(=O)OC7)CC[C@]65O)C4)O[C@@H]3C)O[C@@H]2C)C[C@H](O)[C@@H]1O` [Digoxin, digoxin], the efflux ratio in the data set with P-gp turned out to be 165. Moreover, in “in vitro”, the Papp A→B is 0.08 ± 0.01 ×10⁻⁶ cm/s and the Papp B→A came out at 12.5 ± 0.9 ×10⁻⁶ cm/s.

One may read the bioavailability as the share of a dose that reaches the circulation, judged against a reference dose that is usually intravenous. A high value points to good availability. As to `Cn1cc(-c2cnc3cnn(S(=O)(=O)c4cnc5ccc(-c6cnn(C)c6)cn45)c3c2)cn1` [Compound A, 1-{(6-[(1-methyl)-4-pyrazolyl]-imidazo[1,2-a]pyridine)-3-sulfonyl}-6-[(1-methyl)-4-pyrazolyl]-1-hydro-pyrazolo[4,3-b]pyridine], the in vivo bioavailability result (after direct administration) is on record as “less than 1%”. This compound had a bioavailability (micronized compound A) of 3.3%. For the same compound, the permeability characteristic result with Caco-2 cell model (Caco-2) is on record as “high permeability characteristic”. In addition, the “The ratio of apparent permeability” value in the data set with Caco-2 cell model (Caco-2, 2 μM) is 1.21; in the data set on Caco-2 cell model (Caco-2, 10 μM), 2.27; with Caco-2 cell model (Caco-2, 50 μM), 0.64. The “Equilibrium solubility, 24 h” value in data set [1] (Water) is 0.1 µg/mL; in data set [1] (pH 1.2 simulated gastric fluid), 0.5 µg/mL; in data set [1] (pH 4.5 phosphate buffer solution), 0.1 µg/mL; in data set [1] (pH 6.8 simulated intestinal fluid) it was 0.1 µg/mL. Besides, in data set [1] (media with different pH values), the solubility result is “less than 1 μg/mL”.
